# Measurements reported in patent US20080269248A1, “Tartrate and Malate Salts of Trans-1-((1R,3S)-6-Chloro-3-Phenylindan-1-Yl)-3,3-Dimethylpiperazine” (H. Lundbeck A/S, priority 2005, published 2008).
# Key:
# [1] = solubility of the salts; type: physicochemical
# [2] = molecular target: CYP2D6 (Homo sapiens, UniProt P10635); settings: as described in PCT/DK04/000546; cited from earlier work
# [3] = molecular target: dopamine D1 receptors (Homo sapiens, UniProt P21728); settings: as described in PCT/DK04/000546; cited from earlier work
# Sequence of dopamine D1 receptors (P21728 whole entry): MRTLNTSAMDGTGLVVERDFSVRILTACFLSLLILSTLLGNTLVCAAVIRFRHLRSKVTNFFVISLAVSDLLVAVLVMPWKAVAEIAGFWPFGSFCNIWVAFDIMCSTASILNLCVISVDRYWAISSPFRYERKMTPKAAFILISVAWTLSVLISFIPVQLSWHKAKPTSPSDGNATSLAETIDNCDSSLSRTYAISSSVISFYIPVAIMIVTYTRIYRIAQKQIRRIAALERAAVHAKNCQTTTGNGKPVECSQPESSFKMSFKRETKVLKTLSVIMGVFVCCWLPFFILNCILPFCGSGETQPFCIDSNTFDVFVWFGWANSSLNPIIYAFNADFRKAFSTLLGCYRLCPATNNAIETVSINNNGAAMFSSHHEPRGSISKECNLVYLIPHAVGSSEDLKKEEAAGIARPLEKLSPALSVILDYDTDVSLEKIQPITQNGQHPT
# [4] = molecular target: dopamine D2 receptors (Homo sapiens, UniProt P14416); settings: as described in PCT/DK04/000546; cited from earlier work
# Sequence of dopamine D2 receptors (P14416 whole entry): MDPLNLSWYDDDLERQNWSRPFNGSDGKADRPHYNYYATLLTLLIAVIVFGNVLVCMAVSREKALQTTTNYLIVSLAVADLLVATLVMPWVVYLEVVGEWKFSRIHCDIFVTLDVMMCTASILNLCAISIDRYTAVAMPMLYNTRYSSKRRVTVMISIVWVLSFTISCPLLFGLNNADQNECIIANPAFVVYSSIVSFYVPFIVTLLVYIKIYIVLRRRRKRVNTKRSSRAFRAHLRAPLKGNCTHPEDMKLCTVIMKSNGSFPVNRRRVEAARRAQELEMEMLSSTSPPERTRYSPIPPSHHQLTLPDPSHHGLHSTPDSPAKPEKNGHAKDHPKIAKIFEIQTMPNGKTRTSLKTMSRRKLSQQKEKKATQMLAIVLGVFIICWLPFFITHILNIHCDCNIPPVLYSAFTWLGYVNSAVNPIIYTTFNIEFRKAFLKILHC
# [5] = molecular target: serotonin 5-HT2a receptors (Homo sapiens, UniProt P28223); settings: as described in PCT/DK04/000546; cited from earlier work
# Sequence of serotonin 5-HT2a receptors (P28223 whole entry): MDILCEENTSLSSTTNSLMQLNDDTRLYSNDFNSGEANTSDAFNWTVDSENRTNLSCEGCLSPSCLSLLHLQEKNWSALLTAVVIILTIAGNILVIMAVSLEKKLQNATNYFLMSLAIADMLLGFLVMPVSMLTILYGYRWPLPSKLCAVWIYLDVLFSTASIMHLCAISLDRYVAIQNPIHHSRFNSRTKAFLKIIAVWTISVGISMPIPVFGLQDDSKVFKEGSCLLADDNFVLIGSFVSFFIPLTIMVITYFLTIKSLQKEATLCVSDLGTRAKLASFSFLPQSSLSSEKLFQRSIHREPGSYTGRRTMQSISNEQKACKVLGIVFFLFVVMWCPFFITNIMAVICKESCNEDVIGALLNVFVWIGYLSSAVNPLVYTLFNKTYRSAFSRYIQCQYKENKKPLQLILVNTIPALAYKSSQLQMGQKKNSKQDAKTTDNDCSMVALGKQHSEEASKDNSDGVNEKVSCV
# [6] = molecular target: dopamine (DA) D1 receptors (Homo sapiens, UniProt P21728); settings: as described in PCT/DK04/000546; cited from earlier work
# Sequence of dopamine (DA) D1 receptors (P21728 whole entry): as the sequence (P21728 whole entry) above
# [7] = test system: alfal adrenoceptors; settings: as described in PCT/DK04/000546; cited from earlier work
# [8] = molecular target: DA D2 receptors (Homo sapiens, UniProt P14416); settings: as described in PCT/DK04/000546; cited from earlier work
# Sequence of DA D2 receptors (P14416 whole entry): as the sequence (P14416 whole entry) above
# [9] = rabbit model; as described in PCT/DK04/000546; cited from earlier work
# [10] = test system: pigs sensitized to haloperidol; assay: dystonia in pigs sensitized to haloperidol; type: in vivo
# Sequence of CYP2D6 (P10635 whole entry): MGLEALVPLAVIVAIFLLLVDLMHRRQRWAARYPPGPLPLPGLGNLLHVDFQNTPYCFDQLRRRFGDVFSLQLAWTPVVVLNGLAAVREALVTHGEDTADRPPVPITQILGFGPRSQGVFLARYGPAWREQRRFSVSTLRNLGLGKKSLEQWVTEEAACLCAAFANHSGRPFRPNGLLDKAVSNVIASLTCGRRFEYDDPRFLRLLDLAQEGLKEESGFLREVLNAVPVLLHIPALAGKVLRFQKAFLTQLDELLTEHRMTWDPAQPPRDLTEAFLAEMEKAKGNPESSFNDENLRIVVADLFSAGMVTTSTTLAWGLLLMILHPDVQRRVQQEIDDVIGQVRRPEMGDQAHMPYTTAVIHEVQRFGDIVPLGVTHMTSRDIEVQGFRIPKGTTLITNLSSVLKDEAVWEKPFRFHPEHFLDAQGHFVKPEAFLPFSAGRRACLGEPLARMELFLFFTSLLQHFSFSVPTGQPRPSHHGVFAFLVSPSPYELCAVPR
smiles,measurement,setting,value
"CC1(C)CN([C@@H]2C[C@@H](c3ccccc3)c3ccc(Cl)cc32)CCN1.CC1(C)CN([C@@H]2C[C@@H](c3ccccc3)c3ccc(Cl)cc32)CCN1.O=C(O)C[C@H](O)C(=O)O (relative stereo) [malate salt, trans-1-((1R,3S)-6-chloro-3-phenylindan-1-yl)-3,3-dimethylpiperazinium L-malate]",solubility,[1],0.8 mg/mL
"CC1(C)CN([C@@H]2C[C@@H](c3ccccc3)c3ccc(Cl)cc32)CCN1 [Compound I, trans-1-((1R,3S)-6-chloro-3-phenylindan-1-yl)-3,3-dimethylpiperazine]",inhibition of CYP2D6,[2],relatively weak inhibitor
same,functional activity at dopamine D1 receptors,[3],antagonist
same,functional activity at dopamine D2 receptors,[4],antagonist
same,functional activity at serotonin 5-HT2a receptors,[5],antagonist
same,affinity for dopamine (DA) D1 receptors,[6],high affinity
same,affinity for alfal adrenoceptors,[7],high affinity
same,affinity for DA D2 receptors,[8],high affinity
same,effect on the QT interval,[9],relatively low effect
same,induction of dystonia (EPS liability),[10],did not induce dystonia
